Source: article PMC7588595, “Small-molecule active pharmaceutical ingredients of approved cancer therapeutics inhibit human aspartate/asparagine-β-hydroxylase” (Bioorganic & Medicinal Chemistry, 2020)
Structures can show the parent of a compound that is named as a salt. Where two headings read alike, the source gives them in different places. Starred links: 1 amine or outer side, 2 acyl side, 3 side chain; linkers in the order of their positions; H or OH if unused. Positions of bridges follow the written chain, without caps; N, C: chain ends. Non-standard residues stand in square brackets, D forms with d. Residues, ends and D or L forms follow the SMILES beside them. Chains are numbered I, II in the order given. Actinocin(9to1) = Cc1c2oc3c(C)ccc(C(=O)[*:1])c3nc-2c(C(=O)[*:2])c(N)c1=O; NMeV = CN[C@H](C(=O)O)C(C)C; Sar = CNCC(=O)O

Target: T1, human AspH (His6-AspH315–758) (Homo sapiens, UniProt Q12797)
T1 construct: N-Terminally His6-tagged human AspH315–758 (His6-AspH315–758) was produced in Escherichia coli BL21 (DE3) cells; made in house; host or cells: Escherichia coli BL21 (DE3), pET-28a(+) vector
T1 sequence (Q12797 315-758): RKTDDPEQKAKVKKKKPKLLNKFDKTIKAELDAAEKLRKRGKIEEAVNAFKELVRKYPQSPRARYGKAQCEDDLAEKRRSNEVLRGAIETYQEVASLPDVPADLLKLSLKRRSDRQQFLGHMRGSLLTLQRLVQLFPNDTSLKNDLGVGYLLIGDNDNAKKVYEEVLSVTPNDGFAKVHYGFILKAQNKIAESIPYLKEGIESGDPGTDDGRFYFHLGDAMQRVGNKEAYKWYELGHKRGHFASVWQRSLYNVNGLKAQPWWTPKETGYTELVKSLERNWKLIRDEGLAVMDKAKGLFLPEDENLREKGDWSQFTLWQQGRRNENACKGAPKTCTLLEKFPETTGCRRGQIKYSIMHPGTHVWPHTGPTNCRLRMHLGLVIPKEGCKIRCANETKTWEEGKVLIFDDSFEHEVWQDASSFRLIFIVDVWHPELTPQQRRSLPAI
Assay: SPE-MS AspH inhibition assay (hFX-CP101-119 substrate hydroxylation)
Type: biochemical

[1] = AspH-inhibitor screening, 384-well Plate 1
[2] = AspH-inhibitor screening, 384-well Plate 1, substrate conversion
[3] = AspH-inhibitor screening, Plate 1-duplicate
[4] = AspH-inhibitor screening, Plate 1-duplicate, substrate conversion

Compound | Plate 1 (% inhibition) [1] [%] | Plate 1 (% conversion) [2] [%] | Plate 1-duplicate (% inhibition) [3] [%] | Plate 1-duplicate (% conversion) [4] [%] | Plate 1 (% conversion) [%] | Plate 1 (% inhibition) [%] | Plate 1-duplicate (% conversion) [%] | Plate 1-duplicate (% inhibition) [%]
O=C(O)CCCc1ccc(N(CCCl)CCCl)cc1 [Chlorambucil] | 2.87 | 48.43 | 1.52 | 51.29 | – | – | – | –
CCN(CC)CCCC(C)Nc1ccnc2cc(Cl)ccc12 (centres unmarked) [Chloroquine diphosphate] | – | – | – | – | 43.64 | 13.23 | 46.45 | 11.28
N.N.[Cl][Pt][Cl] [Cisplatin aq] | 26.89 | 37.33 | 26.45 | 38.92 | – | – | – | –
Nc1nc(Cl)nc2c1ncn2[C@H]1C[C@H](O)[C@@H](CO)O1 [Cladribine] | 3.47 | 48.15 | 3.70 | 50.21 | – | – | – | –
O=P1(N(CCCl)CCCl)NCCCO1 (centres unmarked) [Clafen (Cyclophosphamide, Endoxan)] | – | – | – | – | 48.48 | 2.76 | 50.72 | 2.67
Nc1nc(Cl)nc2c1ncn2[C@@H]1O[C@H](CO)[C@@H](O)[C@@H]1F [Clofarabine] | 6.71 | 46.65 | 3.66 | 50.22 | – | – | – | –
CCN(CC)CCOc1ccc(C(=C(Cl)c2ccccc2)c2ccccc2)cc1 [Clomifene citrate] | 59.99 | 22.05 | 68.69 | 17.97 | – | – | – | –
O=C(c1ccc(F)c(F)c1Nc1ccc(I)cc1F)N1CC(O)([C@@H]2CCCCN2)C1 [Cobimetinib] | -5.94 | 52.49 | -8.08 | 56.05 | – | – | – | –
CC1(COc2ccc3c(c2)ncn3-c2ccc3cccc(N4CCC(N)CC4)c3n2)COC1 [Crenolanib] | -2.58 | 50.94 | -3.79 | 53.92 | – | – | – | –
O=P1(N(CCCl)CCCl)NCCCO1 (centres unmarked) [Cyclophosphamide] | – | – | – | – | 44.96 | 10.37 | 48.17 | 7.81
Cc1c2oc3c(C)ccc(C(=O)N[C@@H]4C(=O)N[C@H](C(C)C)C(=O)N5CCC[C@H]5C(=O)N(C)CC(=O)N(C)[C@@H](C(C)C)C(=O)O[C@@H]4C)c3nc-2c(C(=O)N[C@@H]2C(=O)N[C@H](C(C)C)C(=O)N3CCC[C@H]3C(=O)N(C)CC(=O)N(C)[C@@H](C(C)C)C(=O)O[C@@H]2C)c(N)c1=O [Dactinomycin] (I: T[dV]P[Sar][NMeV] / II: T[dV]P[Sar][NMeV]; ester I:1-I:C, II:1-II:C; linker I:N-II:N via Actinocin(9to1)) | -0.066 | 49.78 | -9.41 | 56.71 | – | – | – | –
COc1cccc2c1C(=O)c1c(O)c3c(c(O)c1C2=O)C[C@@](O)(C(C)=O)C[C@@H]3O[C@H]1C[C@H](N)[C@H](O)[C@H](C)O1 [Daunorubicin hydrochloride] | -28.45 | 62.89 | -40.01 | 71.89 | – | – | – | –
COc1cccc2c1C(=O)c1c(O)c3c(c(O)c1C2=O)C[C@@](O)(C(=O)CO)C[C@@H]3O[C@H]1C[C@H](N)[C@H](O)[C@H](C)O1 [Doxorubicin] | -11.25 | 54.95 | -1.25 | 52.66 | – | – | – | –
COc1cccc2c1C(=O)c1c(O)c3c(c(O)c1C2=O)C[C@@](O)(C(=O)CO)C[C@@H]3O[C@H]1C[C@H](N)[C@@H](O)[C@H](C)O1 [Epirubicin hydrochloride] | -8.14 | 53.51 | -28.05 | 65.95 | – | – | – | –
C/C(=C\c1csc(C)n1)[C@@H]1C[C@@H]2O[C@]2(C)CCC[C@H](C)[C@H](O)[C@@H](C)C(=O)C(C)(C)[C@@H](O)CC(=O)O1 [Epothilone B (Patupilone)] | -5.33 | 52.21 | -7.34 | 55.68 | – | – | – | –

Now from value to molecule, other results behind:

Plate 1 (% inhibition) [1] [%] | Plate 1 (% conversion) [2] [%] | Plate 1-duplicate (% inhibition) [3] [%] | Plate 1-duplicate (% conversion) [4] [%] | Compound | Plate 1 (% conversion) [%] | Plate 1 (% inhibition) [%] | Plate 1-duplicate (% conversion) [%] | Plate 1-duplicate (% inhibition) [%]
-6.35 | 52.68 | -0.27 | 52.18 | C[C@@H](Oc1cc(-c2cnn(C3CCNCC3)c2)cnc1N)c1c(Cl)ccc(F)c1Cl [Crizotinib] | – | – | – | –
2.14 | 48.76 | 3.50 | 50.30 | Nc1ccn([C@@H]2O[C@H](CO)[C@@H](O)[C@@H]2O)c(=O)n1 [Cytarabine hydrochloride] | – | – | – | –
0.16 | 49.67 | 3.62 | 50.25 | CNC(=O)c1cc(Oc2ccc(NC(=O)Nc3cc(C(C)(C)C)nn3-c3ccc4ncccc4c3)c(F)c2)ccn1 [DCC-2036_Rebastinib] | – | – | – | –
21.60 | 39.78 | 12.13 | 46.02 | CC(C)(C)c1nc(-c2cccc(NS(=O)(=O)c3c(F)cccc3F)c2F)c(-c2ccnc(N)n2)s1.CS(=O)(=O)O [Dabrafenib Mesylate] | – | – | – | –
-0.11 | 49.80 | 7.93 | 48.11 | CN(C)/N=N/c1[nH]cnc1C(N)=O [Dacarbazine] | – | – | – | –
-68.38 | 81.33 | -15.02 | 59.49 | COc1cc2ncnc(Nc3ccc(F)c(Cl)c3)c2cc1NC(=O)/C=C/CN1CCCCC1.O [Dacomitinib (monohydrate) (PF-00299804)] | – | – | – | –
-20.82 | 59.36 | -21.12 | 62.52 | Cc1nc(Nc2ncc(C(=O)Nc3c(C)cccc3Cl)s2)cc(N2CCN(CCO)CC2)n1 [Dasatinib] | – | – | – | –
4.17 | 47.83 | 0.31 | 51.89 | Nc1ncn([C@H]2C[C@H](O)[C@@H](CO)O2)c(=O)n1 [Decitabine (Dacogen)] | – | – | – | –
14.63 | 43.00 | 7.26 | 48.44 | CC(=O)N(O)CCCCCNC(=O)CCC(=O)N(O)CCCCCNC(=O)CCC(=O)N(O)CCCCCN [Deferoxamine mesylate] | – | – | – | –
0.59 | 49.48 | 1.33 | 51.38 | C[C@@H]1C[C@H]2[C@@H]3CCC4=CC(=O)C=C[C@]4(C)[C@@]3(F)[C@@H](O)C[C@]2(C)[C@@]1(O)C(=O)CO [Dexamethasone (Decadron)] | – | – | – | –
16.70 | 42.04 | 14.98 | 44.61 | C[C@@H](CN1CC(=O)NC(=O)C1)N1CC(=O)NC(=O)C1 [Dexrazoxane] | – | – | – | –
1.39 | 49.11 | 2.62 | 50.74 | CCc1cnn2c(NCc3ccc[n+]([O-])c3)cc(N3CCCC[C@H]3CCO)nc12 [Dinaciclib (SCH727965)] | – | – | – | –
-5.60 | 52.34 | 2.03 | 51.03 | CC(=O)O[C@@]12CO[C@@H]1C[C@H](O)[C@@]1(C)C(=O)[C@H](O)C3=C(C)[C@@H](OC(=O)[C@H](O)[C@@H](NC(=O)OC(C)(C)C)c4ccccc4)C[C@@](O)([C@@H](OC(=O)c4ccccc4)[C@H]21)C3(C)C [Docetaxel] | – | – | – | –
3.55 | 48.11 | 3.19 | 50.46 | CN1CCC(COc2cnc(-c3cccc(Cn4nc(-c5cccc(C#N)c5)ccc4=O)c3)nc2)CC1 [EMD1214063] | – | – | – | –
-5.93 | 52.49 | -4.09 | 54.07 | Nc1ccccc1NC(=O)c1ccc(CNC(=O)OCc2cccnc2)cc1 [Entinostat] | – | – | – | –
-2.61 | 50.95 | -6.89 | 55.46 | CNC(=O)c1ccc(N2C(=S)N(c3ccc(C#N)c(C(F)(F)F)c3)C(=O)C2(C)C)cc1F [Enzalutamide] | – | – | – | –
-3.95 | 51.57 | -0.48 | 52.28 | Cn1cc(C2=C(c3cn(C4CCN(Cc5ccccn5)CC4)c4ccccc34)C(=O)NC2=O)c2ccccc21 [Enzastaurin] | – | – | – | –
